Experimental findings from patent publication US9676818B2, “Toll-like receptor 2-agonistic lipopeptides, and method of making the same” (University of Kansas, priority 2013, dated 2017) are described below.

In one data set the target is human TLR2 (Homo sapiens (Human), UniProt O60603). Briefly: human TLR2-specific NF-κB reporter gene assay (HEK-Blue cells). It counts as cell-based. The source says: (§1) The induction of NF-κB in a TLR2-specific reporter gene assay was quantified using HEK-BLUE™ cells as previously described (Wu, W. et al., J. Med. Chem. 2010, 53, 3198-3213). HEK293 cells stably transfected with either human TLR2 or murine TLR2 and alkaline phosphatase (sAP) were obtained from InvivoGen (San Diego, Calif.), and were maintained in HEK-BLUE™ Selection medium containing zeocin and normocin. Stable expression of secreted alkaline phosphatase (sAP) under control of NF-κB promoters is inducible by TLR2 agonists, and extracellular sAP in the supernatant is proportional to NF-κB induction. HEK-Blue cells were incubated at a density of ˜10^5 cells/mL in a volume of 80 μL/well, in 384-well, flat-bottomed, cell culture-treated microtiter plates until confluency was achieved, and then stimulated with serially-diluted aliquots of compounds for 12 h. sAP was assayed spectrophoto-metrically using an alkaline phosphatase-specific chromogen (present in the HEK-detection medium as supplied by the vendor) at 620 nm. For antagonism assays, HEK-Blue cells were incubated at a density of ˜10^5 cells/mL in a volume of 80 μL/well and stimulated with either PAM2CS (1 μg/mL) or lipoteichoic acid (1 μg/mL) in the presence of graded concentrations of the test compounds as described for TLR7 previously (Shukla, N. M.; et al., Bioorg. Med. Chem. Lett. 2009, 19, 2211-2214; Shukla, N. M. et al., Bioorg. Med. Chem. 2011, 19, 3801-3811).
human TLR2, sequence (O60603 21-784): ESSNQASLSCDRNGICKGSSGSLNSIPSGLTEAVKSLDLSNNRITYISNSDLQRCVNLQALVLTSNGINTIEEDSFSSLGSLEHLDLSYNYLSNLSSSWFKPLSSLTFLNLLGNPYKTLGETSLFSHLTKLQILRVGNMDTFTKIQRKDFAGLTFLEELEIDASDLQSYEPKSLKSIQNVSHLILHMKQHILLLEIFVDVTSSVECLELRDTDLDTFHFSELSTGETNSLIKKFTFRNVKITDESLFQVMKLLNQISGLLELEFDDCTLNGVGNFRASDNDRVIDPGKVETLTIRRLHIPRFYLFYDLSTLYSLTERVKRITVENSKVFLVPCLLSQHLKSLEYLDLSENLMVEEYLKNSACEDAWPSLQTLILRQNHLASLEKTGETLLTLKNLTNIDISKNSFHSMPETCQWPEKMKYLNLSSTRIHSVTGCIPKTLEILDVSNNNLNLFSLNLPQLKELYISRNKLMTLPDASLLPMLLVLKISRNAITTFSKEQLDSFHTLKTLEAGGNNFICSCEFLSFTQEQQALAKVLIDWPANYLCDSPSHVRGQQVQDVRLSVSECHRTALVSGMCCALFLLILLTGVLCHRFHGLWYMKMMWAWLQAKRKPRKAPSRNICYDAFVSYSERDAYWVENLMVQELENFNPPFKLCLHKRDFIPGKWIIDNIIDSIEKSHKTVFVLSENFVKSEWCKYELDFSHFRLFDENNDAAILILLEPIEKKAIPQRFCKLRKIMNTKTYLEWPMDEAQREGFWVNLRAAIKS
Background: Reporter assays use an easily measured gene product as a stand-in for the process of interest.

A further data set in a line: Aqueous solubility. In kind it is physicochemical.
A further data set concerns the target murine TLR2 (Mus musculus (Mouse), UniProt Q9QUN7). Briefly: murine TLR2-specific NF-κB reporter gene assay (HEK-Blue cells). It counts as cell-based.
Excerpt: as §1, with “For antagonism assays, HEK-Blue cells were incubated at a density of ˜10^5 cells/mL in a volume of 80 μL/well and stimulated with either PAM2CS (1 μg/mL) or lipoteichoic acid (1 μg/mL) in the presence of graded concentrations of the test compounds as described for TLR7 previously (Shukla, N. M.; et al., Bioorg. Med. Chem. Lett. 2009, 19, 2211-2214; Shukla, N. M. et al., Bioorg. Med. Chem. 2011, 19, 3801-3811).” left out

Data set [1] can be described thus: Stability of aqueous stocks. It counts as physicochemical.
Where [2] appears, read: human TLR2-specific reporter gene assay.
The mark [3] stands for this setting: human TLR2-specific reporter gene assay, ND = no activity detected at 10 μM, read-out: TLR2-Agonistic Activity (EC50 in nM).

Entries after “also recorded” stand apart in the source; their conditions may differ. Read-outs that look alike come from different tables or passages of the source.

murine TLR2, sequence (Q9QUN7 25-784): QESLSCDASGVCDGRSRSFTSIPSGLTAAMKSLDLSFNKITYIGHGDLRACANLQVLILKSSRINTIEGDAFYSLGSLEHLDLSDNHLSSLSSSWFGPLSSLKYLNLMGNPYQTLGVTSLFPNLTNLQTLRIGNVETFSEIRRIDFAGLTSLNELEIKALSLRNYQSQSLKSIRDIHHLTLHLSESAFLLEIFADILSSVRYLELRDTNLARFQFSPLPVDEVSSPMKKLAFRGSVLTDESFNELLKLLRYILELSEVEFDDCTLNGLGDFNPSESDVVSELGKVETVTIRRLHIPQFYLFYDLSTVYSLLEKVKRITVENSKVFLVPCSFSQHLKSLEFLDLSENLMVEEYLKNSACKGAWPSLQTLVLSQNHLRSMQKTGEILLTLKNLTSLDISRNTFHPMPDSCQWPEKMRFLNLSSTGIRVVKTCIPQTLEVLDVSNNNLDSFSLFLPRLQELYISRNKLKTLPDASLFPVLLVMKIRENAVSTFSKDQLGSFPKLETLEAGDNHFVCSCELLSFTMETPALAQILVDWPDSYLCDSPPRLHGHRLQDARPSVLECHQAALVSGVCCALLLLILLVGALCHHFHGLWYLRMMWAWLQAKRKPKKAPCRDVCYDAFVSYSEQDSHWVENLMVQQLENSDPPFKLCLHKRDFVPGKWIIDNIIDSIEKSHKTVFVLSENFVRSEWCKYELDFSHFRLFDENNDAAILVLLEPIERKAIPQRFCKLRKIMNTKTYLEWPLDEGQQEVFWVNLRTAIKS

As for `CCCCCCCCCCCCCCCC(=O)OCCSC[C@H](N)C(=O)N[C@@H](CO)C(=O)OC` [Compound 6d], the concentration giving a half-maximal response (EC50) – broadly, the concentration that produces a half-maximal response – at human TLR2 (hTLR2 reporter gene assay, read-out: EC50 in engaging hTLR2) turned out to be 3.6 nM. Besides, the “remark beside the EC50 (potency)” value at human TLR2 (setting [2]) is “Low potency”. Besides, in the data set “Aqueous solubility”, the water solubility result was “water-soluble”. Further, the “agonistic activity in mTLR2 / specificity for hTLR2” value at murine TLR2 was “activating human TLR2 (hTLR2), but not murine TLR2 (mTLR2); also recorded: entirely inactive”.

Regarding `CCCCCCCCCCCCCCCCCC(=O)OCCSC[C@H](N)C(=O)N[C@@H](CO)C(=O)OC` [Compound 6e, 2-(((R)-2-amino-3-(((S)-3-hydroxy-1-methoxy-1-oxopropan-2-yl)amino)-3-oxopropyl)thio)ethyl stearate], the “remark beside the EC50 (potency)” value at human TLR2 (setting [2]) is given as “Low potency”. The EC50 at human TLR2 (setting [3]) was 4.79 nM. For the same molecule, the “agonistic activity in mTLR2 / specificity for hTLR2” value on murine TLR2 was “entirely inactive”.

Turning to `CCCCCCCCCCCCCCCC(=O)OCCCSC[C@H](NC(C)=O)C(=O)N[C@@H](CO)C(=O)OC` [Compound 16, 3-(((R)-2-acetamido-3-(((S)-3-hydroxy-1-methoxy-1-oxopropan-2-yl)amino)-3-oxopropyl)thio)propyl palmitate], the “hTLR2-agonistic activity in words” value on human TLR2 (hTLR2 reporter gene assay) was “active, albeit much weaker in potency than 11d”. The EC50 on human TLR2 (setting [3]) is 5.52 nM.

As to `CCCCCCCCCCCCCCCC(=O)OCCSC[C@H](NC(C)=O)C(=O)N[C@@H](CCCCN)C(=O)OC` [Compound 23, 2-(((R)-2-Acetamido-3-(((S)-6-amino-1-methoxy-1-oxohexan-2-yl)amino)-3-oxopropyl)thio)ethyl palmitate], on human TLR2 (setting [3]), the EC50 amounted to 0.225 nM. Moreover, the water solubility result in “Aqueous solubility” is reported as “highly water soluble”. In addition, the “stability of aqueous stocks” value in data set [1] was “significant loss of activity of aqueous stocks within about a week”.

For `CCCCCCCCCCCCCCCC(=O)OCCSC[C@H](NC(C)=O)C(=O)N[C@@H](COS(=O)(=O)O)C(=O)OC` [Compound 26, 2-(((R)-2-Acetamido-3-(((S)-1-methoxy-1-oxo-3-(sulfooxy)propan-2-yl)amino)-3-oxopropyl)thio)ethyl palmitate], at human TLR2 (setting [3]), the EC50 amounted to 7.1 nM. Further, the water solubility entry in “Aqueous solubility” is on record as “exceptionally water soluble”.

`CCCCCCCCCCCCCCCC(=O)OCCSC[C@H](NC(C)=O)C(=O)N[C@@H](COC(=O)CCC(=O)O)C(=O)OC` [Compound 27, (7S,10R)-10-Acetamido-7-(methoxycarbonyl)-4,9,16-trioxo-5,15-dioxa-12-thia-8-azahentriacontan-1-oic acid]: the EC50 on human TLR2 (setting [3]) came out at 0.518 nM. In the data set “Aqueous solubility”, the water solubility result is listed as “exceptionally water soluble”.

With `CCCCCCCCCCCCCCCC(=O)OCCSC[C@H](NC(C)=O)C(=O)N[C@@H](COC(=O)c1cccnc1)C(=O)OC` [Compound 28, (S)-2-((R)-2-Acetamido-3-((2-(palmitoyloxy)ethyl)thio)propanamido)-3-methoxy-3-oxopropyl nicotinate], the EC50 on human TLR2 (setting [3]) came to 1.27 nM.

For the molecule `CCCCCCCCCCCCCCCC(=O)NCCSC[C@H](NC(C)=O)C(=O)N[C@@H](CO)C(=O)OC` [Compound 34, (S)-Methyl 2-((R)-2-acetamido-3-((2-palmitamidoethyl)thio)propanamido)-3-hydroxypropanoate], the EC50 at human TLR2 (setting [3]) worked out at 11.8 nM.

As for `CCCCCCCCCCCCCCCCn1cc(CCSC[C@H](NC(C)=O)C(=O)N[C@@H](CO)C(=O)OC)nn1` [Compound 38, (S)-Methyl 2-((R)-2-acetamido-3-((2-(1-hexadecyl-1H-1,2,3-triazol-4-yl)ethyl)thio)propanamido)-3-hydroxypropanoate], the EC50 at human TLR2 (setting [3]) amounted to 641 nM.

On to `CCCCCCCCCCCCCc1cn(CCSC[C@H](NC(C)=O)C(=O)N[C@@H](CO)C(=O)OC)nn1` [Compound 41, (S)-Methyl 2-((R)-2-acetamido-3-((2-(4-tridecyl-1H-1,2,3-triazol-1-yl)ethyl)thio)propanamido)-3-hydroxypropanoate], for which the EC50 on human TLR2 (setting [3]) was 260 nM.

On to `CCCCCCCCCCCCCCCCNC(=O)OCCSC[C@H](NC(C)=O)C(=O)N[C@@H](CO)C(=O)OC` [Compound 45, (2S,5R)-Methyl 5-acetamido-2-(hydroxymethyl)-4,11-dioxo-10-oxa-7-thia-3,12-diazaoctacosan-1-oate], for which the EC50 on human TLR2 (setting [3]) turned out to be 0.323 nM.

For `CCCCCCCCCCCCCCCCOC(=O)NCCSC[C@H](NC(C)=O)C(=O)N[C@@H](CO)C(=O)OC` [Compound 48, (2S,5R)-Methyl 5-acetamido-2-(hydroxymethyl)-4,11-dioxo-12-oxa-7-thia-3,10-diazaoctacosan-1-oate], the EC50 on human TLR2 (setting [3]) is 0.0615 nM.

`CCCCCCCCCCCCCCCCOC(=O)NCCSC[C@H](NC(C)=O)C(=O)N[C@@H](CO)C(=O)NCCCN(C)C` [Compound 52, Hexadecyl ((8S,11R)-11-acetamido-8-(hydroxymethyl)-2-methyl-7,10-dioxo-13-thia-2,6,9-triazapentadecan-15-yl)carbamate]: at human TLR2 (setting [3]), the EC50 was determined as 0.279 nM. In addition, the water solubility entry in the data set “Aqueous solubility” was “restored”.

Turning to `CCCCCCCCCCC[C@@H](O)CC(=O)OCCSC[C@H](NC(C)=O)C(=O)N[C@@H](CO)C(=O)OC` [Compound 65], on human TLR2 (setting [3]), the EC50 turned out to be 1.13 nM.

On to `CCCCCCCCCCC[C@H](CC(=O)OCCSC[C@H](NC(C)=O)C(=O)N[C@@H](CO)C(=O)OC)OC=O` [Compound 66], for which, at human TLR2 (setting [3]), the EC50 was found to be 0.808 nM.

On to `CCCCCCCCCCC[C@H](CC(=O)OCCSC[C@H](NC(C)=O)C(=O)N[C@@H](CO)C(=O)OC)OC(C)=O` [Compound 82], for which the EC50 on human TLR2 (setting [3]) was determined as 0.182 nM.

For the molecule `CCCCCCCCCCC[C@H](CC(=O)OCCSC[C@H](NC(C)=O)C(=O)N[C@@H](CO)C(=O)OC)OC(=O)CCC` [Compound 83], on human TLR2 (setting [3]), the EC50 came out at 0.345 nM.

For the molecule `CCCCCCCCCCC[C@H](CC(=O)OCCSC[C@H](NC(C)=O)C(=O)N[C@@H](CO)C(=O)OC)OC(=O)CCCCC` [Compound 84], the EC50 at human TLR2 (setting [3]) was 1.5 nM.

With `CCCCCCCCCCC[C@H](CC(=O)OCCSC[C@H](NC(C)=O)C(=O)N[C@@H](CO)C(=O)OC)OC(=O)CCCCCCC` [Compound 85], the EC50 at human TLR2 (setting [3]) is 3.08 nM.

For `CCCCCCCCCCC[C@H](CC(=O)OCCSC[C@H](NC(C)=O)C(=O)N[C@@H](CO)C(=O)OC)OC(=O)CCCCCCCCC` [Compound 86], the 50% effective concentration (EC50) on human TLR2 (setting [3]) stood at 12.9 nM.

As to `CCCCCCCCCCCC(=O)O[C@H](CCCCCCCCCCC)CC(=O)OCCSC[C@H](NC(C)=O)C(=O)N[C@@H](CO)C(=O)OC` [Compound 87], at human TLR2 (setting [3]), the EC50 amounted to 20.7 nM.

As to `CCCCCCCCCCCCCC(=O)O[C@H](CCCCCCCCCCC)CC(=O)OCCSC[C@H](NC(C)=O)C(=O)N[C@@H](CO)C(=O)OC` [Compound 88], the concentration for a half-maximal effect (EC50) on human TLR2 (setting [3]) worked out at 9.52 nM.

Take `CCCCCCCCCCCCCCCC(=O)O[C@H](CCCCCCCCCCC)CC(=O)OCCSC[C@H](NC(C)=O)C(=O)N[C@@H](CO)C(=O)OC` [Compound 89]: at human TLR2 (setting [3]), the half-maximal effective concentration (EC50) turned out to be 4.78 nM.
